Source: patent US20240165114A1, “TREATMENT OF DIABETIC NEPHROPATHY WITH AN sGC STIMULATOR” (Cyclerion Therapeutics, Inc., priority 2019, published 2024)

How the values were obtained:
[1] = tested on: adult patients with type 2 diabetes mellitus with albuminuria; experiment: Phase 2 study: hemoglobin A1c; type: in vivo, human; conditions: for Hemoglobin A1c: Between PRL and PBO Group LS Mean Change from Baseline at week 12 / Hemoglobin A1c: Within Group LS Mean Change from Baseline at Week 12: ITT
Description: (§1) Other secondary objectives of this clinical study included the evaluation of the pharmacokinetic (PK) concentrations of oral IW-1973 and the exploration of the effect of oral IW-1973 on hemodynamics and metabolic effects when administered daily for approximately 12 weeks to adult patients with type 2 diabetes mellitus with albuminuria (i.e., DN patients) who were on a stable regimen of renin-angiotensin system inhibitors (RAAS inhibitors, i.e., ACEi's and ARBs).
(§2) Clinical laboratory assessments obtained during the performance of this clinical trial included: complete blood count, serum chemistry panel, urinalysis, coagulation panel, estimated glomerular filtration rate (eGFR; determined by the Chronic Kidney Disease Epidemiology Collaboration [CKD-EPI] creatinine equation), hemoglobin A1c (HbA1C), Homeostatic Model Assessment to estimate insulin resistance (HOMA-IR), platelet function assessment (using VerifyNow®, at a subset of sites), urine pregnancy, and screens for hepatitis, human immunodeficiency virus, and drugs of abuse.
(§3) This multicenter, randomized, double-blind, placebo-controlled, parallel-group study evaluated 2 dose levels of IW-1973 compared with placebo. The study population consisted of adult patients with type 2 diabetes mellitus, albuminuria, and impaired renal function. Patients had to have been taking antihyperglycemic medications for at least 12 weeks with their regimen being stable (ie, drug and dose) for at least 28 days before the Randomization Visit. Additionally, patients had to have been on a stable regimen of angiotensin-converting enzyme inhibitor (ACEi) or an angiotensin receptor blocker (ARB), for at least 28 days before the Randomization Visit. For more details, see Inclusion Criteria below. A total of 156 patients (approximately 50 patients per arm) were stratified by baseline estimated glomerular filtration rate (eGFR) into three groups: eGFR 30 to 45, >45 to 60, and >60 to 75 mL/min/1.73 m^2) and randomized approximately 1:1:1 to total daily 20 mg IW-1973, 40 mg IW-1973, or placebo.

[2] = tested on: adult patients with type 2 diabetes mellitus with albuminuria; experiment: Phase 2 study: fasting plasma glucose; type: in vivo, human; conditions: ITT
Description: as §1, §2, §3

[3] = patient concomitantly taking a strong CYP3A inhibitor; cited from earlier work
[4] = tested on: adult patients with type 2 diabetes mellitus with albuminuria; experiment: Phase 2 study: serum LDL cholesterol; type: in vivo, human; conditions: for Serum LDL Cholesterol: Between PRL and PBO Group LS Mean Change from Baseline at week 12 / Serum LDL Cholesterol: Within Group LS Mean Change from Baseline at Week 12: ITT; for LDL Cholesterol: Placebo Adjusted LS Mean Change from Baseline at Week 12 / LDL Cholesterol: Within Group LS Mean Change from Baseline at Week 12: mITT Population
Description: as §1, §2, §3

[5] = tested on: adult patients with type 2 diabetes mellitus with albuminuria; experiment: Phase 2 study: serum cholesterol; type: in vivo, human; conditions: for Serum Cholesterol: Between PRL and PBO Group LS Mean Change from Baseline at week 12 / Serum Cholesterol: Within Group LS Mean Change from Baseline at Week 12: ITT; for Cholesterol: Placebo-Adjusted LS Mean Change from Baseline at Week 12 / Cholesterol: Within Group LS Mean Change from Baseline at Week 12: mITT Population
Description: as §1, §2, §3

[6] = tested on: adult patients with type 2 diabetes mellitus with albuminuria; experiment: Phase 2 study: 24-hour ambulatory blood pressure monitoring (ABPM); type: in vivo, human; conditions: ITT, 24-Hour ABPM
Procedure: Hemodynamic and vital signs that were measure included seated and standing BP (systolic and diastolic) and pulse measurements by automated office blood pressure (AOBP), ambulatory BP (systolic and diastolic) and pulse monitoring, respiratory rate, oral temperature. Orthostatic (standing minus seated) measurements were calculated for BPs and pulse.
as §3
Screening Period: The Screening Period began with the signature of the informed consent form (ICF) at the Screening Visit and lasted up to 45 days. At the Screening Visit (which could occur from Day −45 to Day −15), patients underwent preliminary screening procedures to determine their eligibility. Eligible patients returned to the clinic for the Baseline Visit ([…]) for baseline and eligibility assessments including 24-hour ambulatory blood pressure monitoring (ABPM). The end of the Screening Period coincided with the beginning of the Treatment Period.
Dosing on Days 1 to 7 (±1) was BID (twice daily), morning and evening; dosing on Day 8 (±1) and onward was QD (once daily), 2 tablets in the morning. At the Randomization Visit on Day 1, patients received their morning dose of study drug in the clinic and underwent safety, efficacy, and pharmacokinetic (PK) assessments, including blood and urine collections at prespecified times. Patients stayed in the clinic at least 6 hours postdose and were able to leave the clinic at the Investigator's discretion following all study procedures. At the Week 1 Visit on Day 8 (±1), patients returned to the clinic and received their first QD dose of study drug in the clinic. Patients underwent safety, efficacy, and PK assessments, including blood and urine collections at prespecified times. Patients stayed in the clinic at least 6 hours postdose and were able to leave the clinic at the Investigator's discretion following all study procedures. At the Week 4 (Day 29±3), Week 8 (Day 57±3), and End of Treatment (Day 87±3) Visits, patients returned to the clinic for study drug administration; safety, efficacy, and PK assessments; and study drug supply, if applicable.

SMILES: OC(CNc1nc(-c2cc(-c3ccon3)n(Cc3ccccc3F)n2)ncc1F)(C(F)(F)F)C(F)(F)F [Compound I, praliciguat]
- decrease in mean HbA1c levels compared to placebo ([1]; 12 weeks of treatment): ~0.3%
- Hemoglobin A1c: Between PRL and PBO Group LS Mean Change from Baseline at week 12 ([1]; PRL 20 mg): −0.23%
- Hemoglobin A1c: Within Group LS Mean Change from Baseline at Week 12 ([1]; PRL 20 mg): −0.26%
- Hemoglobin A1c: Between PRL and PBO Group LS Mean Change from Baseline at week 12 ([1]; PRL 40 mg): −0.30%
- Hemoglobin A1c: Within Group LS Mean Change from Baseline at Week 12 ([1]; PRL 40 mg): −0.38%
- Hemoglobin A1c: Between PRL and PBO Group LS Mean Change from Baseline at week 12 ([1]; PRL Combined): −0.27%
- Hemoglobin A1c: Within Group LS Mean Change from Baseline at Week 12 ([1]; PRL Combined): −0.34%
- Fasting Plasma Glucose: Between PRL and PBO Group LS Mean Change from Baseline at week 12 ([2]; PRL 20 mg): 2.3 mg/dL
- Fasting Plasma Glucose: Within Group LS Mean Change from Baseline at Week 12 ([2]; PRL 20 mg): 6.09 mg/dL
- Fasting Plasma Glucose: Between PRL and PBO Group LS Mean Change from Baseline at week 12 ([2]; PRL 40 mg): -18.2 mg/dL
- Fasting Plasma Glucose: Within Group LS Mean Change from Baseline at Week 12 ([2]; PRL 40 mg): -14.4 mg/dL
- Fasting Plasma Glucose: Between PRL and PBO Group LS Mean Change from Baseline at week 12 ([2]; PRL Combined): -7.9 mg/dL
- Fasting Plasma Glucose: Within Group LS Mean Change from Baseline at Week 12 ([2]; PRL Combined): -4.1 mg/dL
- AUC with concomitant strong CYP3A inhibitor versus without [3]: doubled
- T1/2 with concomitant strong CYP3A inhibitor versus without [3]: doubled
- Serum LDL Cholesterol: Between PRL and PBO Group LS Mean Change from Baseline at week 12 ([4]; PRL 20 mg): -8.9 mg/dL
- Serum LDL Cholesterol: Within Group LS Mean Change from Baseline at Week 12 ([4]; PRL 20 mg): -6.0 mg/dL
- Serum LDL Cholesterol: Between PRL and PBO Group LS Mean Change from Baseline at week 12 ([4]; PRL 40 mg): -6.2 mg/dL
- Serum LDL Cholesterol: Within Group LS Mean Change from Baseline at Week 12 ([4]; PRL 40 mg): -3.3 mg/dL
- Serum LDL Cholesterol: Between PRL and PBO Group LS Mean Change from Baseline at week 12 ([4]; PRL Combined): -7.5 mg/dL
- Serum LDL Cholesterol: Within Group LS Mean Change from Baseline at Week 12 ([4]; PRL Combined): -4.6 mg/dL
- LDL Cholesterol: Placebo Adjusted LS Mean Change from Baseline at Week 12 ([4]; PRL 20 mg): -13.4 mg/dL
- LDL Cholesterol: Within Group LS Mean Change from Baseline at Week 12 ([4]; PRL 20 mg): -8.8 mg/dL
- LDL Cholesterol: Placebo Adjusted LS Mean Change from Baseline at Week 12 ([4]; PRL 40 mg): -9.5 mg/dL
- LDL Cholesterol: Within Group LS Mean Change from Baseline at Week 12 ([4]; PRL 40 mg): -4.9 mg/dL
- LDL Cholesterol: Placebo Adjusted LS Mean Change from Baseline at Week 12 ([4]; PRL Combined): -11.4 mg/dL
- LDL Cholesterol: Within Group LS Mean Change from Baseline at Week 12 ([4]; PRL Combined): -6.9 mg/dL
- Serum Cholesterol: Between PRL and PBO Group LS Mean Change from Baseline at week 12 ([5]; PRL 20 mg): -12.1 mg/dL
- Serum Cholesterol: Within Group LS Mean Change from Baseline at Week 12 ([5]; PRL 20 mg): -7.8 mg/dL
- Serum Cholesterol: Between PRL and PBO Group LS Mean Change from Baseline at week 12 ([5]; PRL 40 mg): -8.1 mg/dL
- Serum Cholesterol: Within Group LS Mean Change from Baseline at Week 12 ([5]; PRL 40 mg): -3.7 mg/dL
- Serum Cholesterol: Between PRL and PBO Group LS Mean Change from Baseline at week 12 ([5]; PRL Combined): -10.1 mg/dL
- Serum Cholesterol: Within Group LS Mean Change from Baseline at Week 12 ([5]; PRL Combined): -5.8 mg/dL
- Cholesterol: Placebo-Adjusted LS Mean Change from Baseline at Week 12 ([5]; PRL 20 mg): -13.1 mg/dL
- Cholesterol: Within Group LS Mean Change from Baseline at Week 12 ([5]; PRL 20 mg): -10.6 mg/dL
- Cholesterol: Placebo-Adjusted LS Mean Change from Baseline at Week 12 ([5]; PRL 40 mg): -7.5 mg/dL
- Cholesterol: Within Group LS Mean Change from Baseline at Week 12 ([5]; PRL 40 mg): -4.8 mg/dL
- Cholesterol: Placebo-Adjusted LS Mean Change from Baseline at Week 12 ([5]; PRL Combined): -10.2 mg/dL
- Cholesterol: Within Group LS Mean Change from Baseline at Week 12 ([5]; PRL Combined): -7.7 mg/dL
- Between PRL and PBO Group LS Mean Change 24-hour MAP from Baseline at week 12 ([6]; PRL 20 mg): −3.96 mmHg
- Between PRL and PBO Group LS Mean Change 24-hour SBP from Baseline at week 12 ([6]; PRL 20 mg): −4.06 mmHg
- Within Group LS Mean Change from Baseline 24-hour MAP at Week 12 ([6]; PRL 20 mg): −3.62 mmHg
- Within Group LS Mean Change from Baseline 24-hour SBP at Week 12 ([6]; PRL 20 mg): −4.18 mmHg
- Between PRL and PBO Group LS Mean Change 24-hour MAP from Baseline at week 12 ([6]; PRL 40 mg): −3.58 mmHg
- Between PRL and PBO Group LS Mean Change 24-hour SBP from Baseline at week 12 ([6]; PRL 40 mg): −4.29 mmHg
- Within Group LS Mean Change from Baseline 24-hour MAP at Week 12 ([6]; PRL 40 mg): −3.23 mmHg
- Within Group LS Mean Change from Baseline 24-hour SBP at Week 12 ([6]; PRL 40 mg): −4.41 mmHg
- Between PRL and PBO Group LS Mean Change 24-hour MAP from Baseline at week 12 ([6]; PRL Combined): −3.77 mmHg
- Between PRL and PBO Group LS Mean Change 24-hour SBP from Baseline at week 12 ([6]; PRL Combined): −4.17 mmHg
- Within Group LS Mean Change from Baseline 24-hour MAP at Week 12 ([6]; PRL Combined): −3.43 mmHg
- Within Group LS Mean Change from Baseline 24-hour SBP at Week 12 ([6]; PRL Combined): −4.30 mmHg
